Test results: patent US5990137A, “Method of inhibiting NADPH oxidase” (Idun Pharmaceuticals, Inc., priority 1998, dated 1999)

Tests used:
[1] = system: isolated neutrophils (opsonized zymosan-stimulated oxidative burst); test: Measurement of chemiluminescence of isolated neutrophils (neutrophil burst, Lucigenin); format: cell-based; settings: Neutrophil; for IC50: 14 min, opsonized zymosan, lucigenin, 37° C.
Experimental: Whole blood (150 ml) was anticoagulated with Acid Citrate Dextrose (ACD) using a ratio of 1:5 ACD to blood.
All steps are to be performed using polypropylene plastic ware.
a. Whole blood (60 ml) was added to each of three 100 ml polypropylene graduated cylinders containing 30 ml of […]. The cylinders were covered securely with Parafilm. The blood was allowed to sediment for approximately 1 hour at room temperature.
b. The turbid straw-colored layer was harvested from the top of the cylinders into 50 ml conical polypropylene tubes. The white blood cells were pelleted by centrifugation at 240×g (Sorvall at 1200 rpm) for 12 min. at 4° C. with the brake on low.
c. The supernatant was removed by aspiration and the pooled pellet resuspended in 4-50 ml cold PBS (w/o Ca, Mg). It was then centrifuged at 240×g (Sorvall at 1200 rpm) for 6 min. at 4° C. with the brake on high.
a. The supernatant was aspirated and the pellet resuspended in 12 ml of cold cell culture-grade water. The pellet was titrated gently with a pipet for exactly 30 seconds then 4 ml of cold 0.6 M KCl was added. It was then QSed to 50 ml with cold PBS (w/o Ca, Mg) and centrifuged at 300×g (Sorvall TY 6000D at 1400 rpm) for 6 min. at 4° C. with the brake on high.
b. Step 2.a. was repeated once more.
a. The supernatant was aspirated and the cells were resuspended in 2.5 ml cold PBS (w/o Ca, Mg). The cell suspension was carefully layered over 3 ml Ficoll-Hypaque in a 15 ml polypropylene conical tube. It was then centrifuged at 400×g (Sorvall at 1900 rpm) for 30 min. at 4° C. with the brake on low.
b. Aspiration occurred down to the neutrophil pellet. The pellet was resuspended fin cold PBS (w/o Ca, Mg) and transferred to a 50 ml conical tube. It was then QSed to 50 ml with cold PBS (w/o Ca, Mg) and centrifuged at 300×g (Sorvall at 1400 rpm) for 6 min. at 4° C. with the brake on high.
d. The supernatant was aspirated and the pellet resuspended in 50 ml cold PBS (w/o Ca, Mg) and centrifuged at 300×g (Sorvall at 1400 rpm) for 6 min. with the brake on high.
e. The supernatant was aspirated and the neutrophil pellet resuspended in 4.0 ml cold PBS (w/o Ca, Mg). It was kept on ice. Trypan blue (10 μl) was diluted (1:40) and the cells were counted using a hemacytometer. The cell number and viability by Trypan […] exclusion were determined and the results recorded. The cells were diluted to 5.0×10^6 cells/ml with cold PBS-G (with Ca, Mg) prior to plating for the assay.
2. […] The suspension was centrifuged and the particles resuspended in 7 ml of PBS-G (with Ca, Mg)(18 mg/ml). It was stored on ice until used (briefly vortexed prior to pipetting).
4. PBS-G (10 μl) (with Ca, Mg) was added to the wells in a white 96 well plate.
6. The compound dilutions (10 μl) were added to the appropriate wells.
7. The cell prep was diluted to 5.0×10^6 cells/ml with PBS-G (with Ca, Mg) in a separate multipipette trough.
8. The neutrophil suspension (20 μl) was added to the appropriate wells.
9. The plate was incubated at 37° C. for three minutes.
10. Zymosan (10 μl of 18 mg/ml) was added to the appropriate wells.
11. The plate was read on the luminometer (Labsystems Luminoskan, Needham Heights, Mass.) for 14 min. at 37° C. on the kinetic mode and the results recorded using the software DeltaSoft.
12. The plate data was exported into Excel to determine percent of control and derive the means and standard deviations for the data. The IC50 was determined graphically from the data and plotted using SigmaPlot. For cases where one concentration (50 μM) was tested, percent inhibition was compared to that seen with 50 μM apocynin.
13. The results are set forth below in Table 1 as "Neutrophil Burst IC50 (Lucigenin)". The results for 50 μM inhibition in the single assay are reported as "Neutrophil Burst Screen Value (% @ 50 μM)".

Jurkat cells = test: Cytotoxicity assay employing Jurkat cells (MTT); format: cell-based; settings: Jurkat clone E6-1, MTT, 37° C. overnight
Experimental: This Assay was performed as set forth in Hansen et al., Journal of Immunological Methods, 119:203-210 (19930; Mosmann, Journal of Immunological Methods, 65:55-63 (1983); and Slater et al., Biochem. Ciophys. Acta, 77:383 (1963); except as noted below.
Compounds from the following Examples were tested for cytotoxicity using MTT (i.e., 3-[4,5-Dimethylthiazol-2-yl]-2,5-diphenyltetrazolium bromide; Thiazolyl Blue (Sigma, St. Louis, Mo.)).
MTT was dissolved in basal culture media at a concentration of 5 mg/ml. If necessary, it was briefly warmed at 37° C. to fully dissolve, passed through a sterile filter, and aliquoted and stored at -20° C. until use.
The Extraction Buffer used was a solution composed of 20% SDS, 2.5% Acetic Acid (80% 6 stock solution), 2.5% 1N Hcl, 50% Dimethylformamide/50% dissolved in distilled water, SDS was dissolved into buffer components with gentle heating and stirring and the resultant solution was filtered and stored until use.
The MTT solution was added in an amount equal to 10% of the culture volume to each well in a 96-well plate containing 100,000 Jurkat cells/well.
The wells were then incubated for 0.5 to 2 hours in standard culture conditions. A volume of extraction buffer equal to the culture volume was added. The 96-well plate was then sealed. The formazan crystals were allowed to extract at 37° C. for four hours. The plate was read on a spectrophotometer [Spectramax 250, Molecular Devices, Sunnyvale, Calif.] at an absorbance wavelength of 560 nm. (The background absorbance measured at 650 nm was subtracted from the value measured at 560 nm.)
The Jurkat cells (Jurkat clone E6-1) were grown using standard conditions supplied by ATCC (American Type Culture Collection--Rockville, Md.).
The compounds diluted in medium (RPMI 1640 plus 10% fetal bovine serum) stock solution of 100 μM, then this stock solution was further diluted 3-fold before testing in the instant assay.
2-Hydroxy-3-methoxy-E-nitrostyrene tested at 100 μM as death control cells, incubated under the above conditions at 37° C. overnight.
The Extraction Buffer (100 μl) was added to each well and the resultant suspension was incubated 4 hours at 37° C.
The results from this procedure are set forth above in Table 1 in the column marked "Cytotox (MTT/Jurkat)". […] Toxicity was rated "3" if dead cells and >50% reduction in MTT absorbance at 1 μM test compound.

neutrophils = test: Specificity: chemotaxis of neutrophils activated by f-Met-Leu-Phe; format: cell-based; settings: 50 μM
Experimental: (§1) To assess specificity of action, the title compound (hereinafter "Azine") was tested for its ability to inhibit other functions of stimulated neutrophils and monocytes. The procedure followed was set forth in Mrowietz et al., British Journal of Dermatology, 127:382-386 (1992); Snyderman, Ralph, Methods for Studying Mononuclear Phagocytes, ed. Adams, Edelson, and Koren, New York, Academic Press, pp. 535-547 (1981); Sozzani et al., The Journal of Immunology, Oct. 1, 1991, pp. 2215-2221; Zigmond et al., The Journal of Experimental Medicine, 137:387 (1973); Wahl et al., Cell Immunol., 85:373 (1984); Wahl et al., Current Protocols in Immunology, ed. Coligan, Kruisbeek, Margulies, Shevach, and Strober, p. 7.6.1 (1991); Hogquist et al., J. Immunol, 147:2181 (1991). The Azine (50 μM) had no effect on chemotaxis of neutrophils activated by the chemotactic peptide f-Met-Leu-Phe.

[2] = system: monocytes (IL-1 secretion); test: Specificity: secretion of IL-1 by monocytes; format: cell-based; settings: 50 μM; LPS stimulated or unstimulated monocytes
Experimental: as §1

Xanthine oxidase = target: T1, Xanthine oxidase (Bos taurus, UniProt P80457); test: Xanthine oxidase assay (superoxide by hypoxanthine/xanthine oxidase, Lucigenin); format: biochemical; settings: hypoxanthine 150 μM, buttermilk xanthine oxidase, 37° C.
T1 construct: purchased Sigma x-1875; host or cells: buttermilk
T1 sequence (P80457 whole entry): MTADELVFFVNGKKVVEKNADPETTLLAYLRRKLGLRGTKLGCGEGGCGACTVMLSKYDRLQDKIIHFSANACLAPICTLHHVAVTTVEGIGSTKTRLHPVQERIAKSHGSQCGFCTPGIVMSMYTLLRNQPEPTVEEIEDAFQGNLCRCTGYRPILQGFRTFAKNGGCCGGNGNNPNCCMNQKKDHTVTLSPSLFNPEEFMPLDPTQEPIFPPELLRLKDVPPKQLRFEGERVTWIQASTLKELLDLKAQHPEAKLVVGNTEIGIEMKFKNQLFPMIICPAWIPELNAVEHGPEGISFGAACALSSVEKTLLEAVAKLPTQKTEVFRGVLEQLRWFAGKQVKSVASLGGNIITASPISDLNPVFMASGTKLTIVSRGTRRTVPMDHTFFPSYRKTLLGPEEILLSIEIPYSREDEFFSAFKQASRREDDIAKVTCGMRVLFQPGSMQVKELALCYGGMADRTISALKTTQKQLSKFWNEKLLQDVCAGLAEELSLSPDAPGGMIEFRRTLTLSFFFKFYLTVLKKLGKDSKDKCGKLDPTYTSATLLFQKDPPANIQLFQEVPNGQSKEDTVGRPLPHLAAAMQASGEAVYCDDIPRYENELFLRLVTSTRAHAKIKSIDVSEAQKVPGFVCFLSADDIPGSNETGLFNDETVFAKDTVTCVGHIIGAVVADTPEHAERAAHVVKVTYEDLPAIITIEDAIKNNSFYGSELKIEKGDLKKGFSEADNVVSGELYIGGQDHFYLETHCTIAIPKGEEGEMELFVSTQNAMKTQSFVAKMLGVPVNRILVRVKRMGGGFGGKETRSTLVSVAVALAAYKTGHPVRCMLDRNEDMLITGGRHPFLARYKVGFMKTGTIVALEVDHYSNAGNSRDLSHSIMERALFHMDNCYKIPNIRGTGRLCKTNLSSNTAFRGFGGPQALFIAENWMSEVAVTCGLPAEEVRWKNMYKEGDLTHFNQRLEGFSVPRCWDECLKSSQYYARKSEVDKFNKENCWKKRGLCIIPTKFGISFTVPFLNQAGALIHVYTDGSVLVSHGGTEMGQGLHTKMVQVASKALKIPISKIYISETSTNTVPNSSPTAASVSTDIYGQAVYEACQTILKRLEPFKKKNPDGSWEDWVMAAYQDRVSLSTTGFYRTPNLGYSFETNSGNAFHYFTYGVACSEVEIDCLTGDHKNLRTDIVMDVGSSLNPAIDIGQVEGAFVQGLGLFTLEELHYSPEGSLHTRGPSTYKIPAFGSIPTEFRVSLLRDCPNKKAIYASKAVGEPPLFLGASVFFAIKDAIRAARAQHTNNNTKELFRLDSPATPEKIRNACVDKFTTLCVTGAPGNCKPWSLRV

[3] = system: monocytes (TNF secretion); test: Specificity: secretion of TNF by monocytes; format: cell-based; settings: 50 μM; LPS stimulated or unstimulated monocytes
Experimental: as §1

Row | SMILES | IC50 [1] | inhibition at 50 µM ([1]; percent inhibition at 50 μM, single concentration, read-out: Neutrophil Burst Screen Value (% @ 50 μM)) | Cytotox (MTT/Jurkat) (Jurkat cells) | effect on chemotaxis of neutrophils (neutrophils) | inhibition of secretion of IL-1 [2] | Xanthine Oxidase Inhibition IC50 (Integral) (Xanthine oxidase) | inhibition of secretion of TNF [3] | IC50 (Xanthine oxidase; read-out: Xanthine Oxidase Inhibition IC50 (Integral))
1 | COc1cc(/C=N/N=C/c2ccc(O)c(OC)c2)ccc1O [C, Bis[4-hydroxy-3-methoxybenzaldehyde]-trans,trans-azine] | 4.9 µM | 85.6% | 0 | no effect | did not inhibit | No Effect | did not inhibit | –
2 | COc1ccc(N=Cc2ccc(O)c(OC)c2)cc1 [Example 17, N-(3-Methoxy-4-Hydroxybenzylidene)-p-Methoxyaniline] | 3.1 µM | – | 0 | – | – | No Effect | – | –
3 | Oc1ccc(/C=N/N=C/c2ccc(O)c(O)c2)cc1O [Example 12, Bis[3,4 - Dihydroxybenzaldehyde]trans,trans-Azine] | 7.3 µM | – | 1 (dead cells and >50% reduction in MTT absorbance were observed at 100 μM of the test compound) | – | – | – | – | 1.1 µM
4 | COc1cc(/C=N/N=C/c2ccccc2)ccc1O [Example 13, N-[4-Hydroxy-3-Methoxybenzaldehyde]-N'-[Benzaldehyde]trans,trans-Azine] | 44 µM | – | 0 | – | – | No Effect | – | –
